# Data from patent publication US20250154141A1 (University of Florida Research Foundation, Incorporated, priority 2021, published 2025).
# pIC50: −log10 of the molar value. Read-outs that look alike come from different tables or passages of the source.
# What was measured:
# MOLT-4 = assay: Cell viability assay (MTS) in MOLT-4 cells; format: cell-based; conditions: Homo sapiens
# Procedure: (§1) Acute lymphoblastic leukemia cells (MOLT-4 and RS4; 11) were incubated with increasing concentrations of Bcl-xL degraders for 48 h. Cell viability was measured by tetrazolium-based MTS assay.
# RS4; 11 = assay: Cell viability assay (MTS) in RS4; 11 cells; format: cell-based; conditions: Homo sapiens
# Procedure: as §1
# [1] = biological target: VCB E3 ligase complex and Bcl-xL (Homo sapiens, UniProt P40337+Q07817); assay: Ternary complex assay (AlphaLISA); format: binding; conditions: FIG. 5A
# Procedure: To detect ternary complex formation induced by the compounds, AIphaLISA assay was used to measure luminescence signals arisen from proximity of Bcl-xL bounded acceptor beads and VHL- or CRBN—bounded donor beads. Briefly, to a 96-well PCR plate, 10 μL of 20 nM 6-His tagged Bcl-xL protein can be mixed with 10 μL of 20 nM GST-tagged VHL complex protein and 10 μL of serially diluted testing compounds. After incubating at room temperature for 30 […], 5 μL of 160 μg/mL Glutathione donor beads (PerkinEImer) was added and the mixture was incubated at dark for 15 min. 5 μL of 160 μg/mL of anti-His acceptor beads was added lastly and the mixture was incubated for an additional 45 min before being transferred to two adjacent wells (17 μL each) of 384-well white OptiPIate (PerkinEImer). The luminescence signals were detected on a Biotek's Synergy Neo2 multi-mode plate reader installed with an AphaScreen filter cube. All reagents were diluted in an assay buffer of 25 mM HEPES, pH 7.5, 100 mM NaCl, 0.1% BSA, and 0.005% tween 20 prior incubation.
# Bcl-xL [2] = biological target: T1, Bcl-xL (Homo sapiens, UniProt Q07817); assay: Protein degradation assay in Jurkat cells (Western blot), Bcl-xL; format: cell-based; parameters: endogenous in cells; host or cells: Jurkat cells; conditions: for degradation of Bcl-xL (immunoblot): FIGS. 2-3, increasing concentrations 16 hours, 100 nM for various durations; for duration of Bcl-xL degradation after wash-off: FIGS. 2C, 3C, 16 h treatment, cultured without compound 0 to 48
# Procedure: (§2) Jurkat cells and human platelets were incubated with increasing concentrations of test compounds for 16 h. The cells were harvested and lysed in RIPA lysis buffer supplemented with protease and phosphatase inhibitor cocktails. An equal amount of protein ([…]) was resolved on a pre-cast 4-20% SDS-PAGE gel. Proteins were subsequently transferred to NOVEX PVDF membranes by electrophoresis. The membranes were blocked in blocking buffer (5% non-fat dry milk in TBS-T), and incubated with primary antibodies (at optimized concentrations) overnight at 4° C. After three washings in TBS-T, the membranes were incubated with an appropriate FIRP-conjugated secondary antibody for 1 h at room temperature. After extensive washing for three times, the proteins of interest was detected with ECL western blotting detection reagents and recorded with autoradiography (Pierce Biotech, Rockford, IL, USA). The primary antibodies for Bcl-xL (Cat #2762), Bcl-2 (Cat #2872), Mcl-1 (Cat #5453) and j-actin (Cat #4970) were purchased from Cell Signaling Technology. The relative band intensity was measured using ImageJ software and normalized to β-actin.
# Bcl-2 [3] = biological target: T2, Bcl-2 (Homo sapiens, UniProt P10415); assay: Protein degradation assay in Jurkat cells (Western blot), Bcl-2; format: cell-based; parameters: endogenous in cells; host or cells: Jurkat cells; conditions: for degradation of Bcl-2 (immunoblot): FIGS. 2-3, increasing concentrations 16 hours, 100 nM for various durations; for duration of Bcl-2 degradation after wash-off: FIGS. 2C, 3C, 16 h treatment, cultured without compound 0 to 48
# Procedure: as §2
# Bcl-xL [4] = biological target: T1, Bcl-xL; assay: Protein degradation assay in human platelets (Western blot), Bcl-xL; format: cell-based; parameters: endogenous in cells; host or cells: human platelets; conditions: FIG. 4, 16 h
# Procedure: as §2
# Bcl-2 [5] = biological target: T2, Bcl-2; assay: Protein degradation assay in human platelets (Western blot), Bcl-2; format: cell-based; parameters: endogenous in cells; host or cells: human platelets; conditions: FIG. 4, 16 h
# Procedure: as §2
# human platelets = assay: Platelet toxicity assay (MTS viability); format: cell-based; conditions: for pIC50: Platelet, human platelets, 48 h; for Platelets/MOLT-4 IC50 Fold change: ratio of platelet IC50 to MOLT-4 IC50
# Procedure: Platelet-rich plasma (PRP) was purchased from Life South Community Blood Centers (Gainesville, FL, USA). PRP was transferred into a 50 mL tube containing 5 mL of the acid citrate buffer (Cat. No. sc-214744, Santa Cruz Biotechnology). To prevent clotting, prostaglandin E1 (PGE1, Cat. No. sc-201223A, Santa Cruz Biotechnology, Dallas, TX, USA) and apyrase (Cat. No. A6237, Sigma-Aldrich, St. Louis, MO, USA) were added to final concentrations of […] and 0.2 U/mL, respectively. After gently mixing the solution, platelets were pelleted by centrifugation at 1200 g for 10 min without break. Pelleted platelets were gently washed without disturbing platelets using 2 mL of HEPES Tyrode's buffer (Cat. No. PY-921WB, Boston BioProducts, Ashland, MA, USA) containing […] PGE1 and 0.2 U/mL apyrase. After washing, pellets were gently suspended in 10 mL of HEPES Tyrode's buffer containing […] PGE1 and 0.2 U/mL apyrase. Then, the platelet number was counted using a HEMAVET 950FS hematology analyzer (Drew Scientific, Inc., Oxford, CT, USA). For viability assays, the platelet number was adjusted to 2×10^8/mL in HEPES Tyrode's buffer containing […] PGE1 and 0.2 U/mL apyrase. Each treatment was given in 2 mL of the platelet suspension in 15 mL polypropylene tubes. The tubes were placed on a rotating platform at room temperature, and the viability of platelets was measured after 48 h treatment by using the MTS reagent (Cat. No. G1111, Promega, Madison, WI, USA). The data were analyzed by the GraphPad Prism 7 software for the calculation of IC50 values.
# T2 sequence (P10415 whole entry): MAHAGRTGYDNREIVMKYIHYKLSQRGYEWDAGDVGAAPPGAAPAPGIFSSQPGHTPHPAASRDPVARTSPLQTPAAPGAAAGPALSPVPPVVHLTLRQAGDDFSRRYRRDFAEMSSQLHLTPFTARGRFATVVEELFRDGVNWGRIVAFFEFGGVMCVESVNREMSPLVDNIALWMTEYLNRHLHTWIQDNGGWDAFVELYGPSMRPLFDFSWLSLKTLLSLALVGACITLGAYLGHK
# T1 sequence (Q07817 whole entry): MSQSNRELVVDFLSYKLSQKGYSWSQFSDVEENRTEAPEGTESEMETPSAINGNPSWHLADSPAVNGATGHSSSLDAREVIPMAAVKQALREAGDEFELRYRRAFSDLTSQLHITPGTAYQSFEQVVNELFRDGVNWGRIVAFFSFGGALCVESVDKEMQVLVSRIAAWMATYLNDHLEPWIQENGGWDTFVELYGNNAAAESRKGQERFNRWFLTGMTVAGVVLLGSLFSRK
# Sequence of VCB E3 ligase complex and Bcl-xL (Q07817 whole entry): as above
# Sequence of VCB E3 ligase complex and Bcl-xL (P40337 whole entry): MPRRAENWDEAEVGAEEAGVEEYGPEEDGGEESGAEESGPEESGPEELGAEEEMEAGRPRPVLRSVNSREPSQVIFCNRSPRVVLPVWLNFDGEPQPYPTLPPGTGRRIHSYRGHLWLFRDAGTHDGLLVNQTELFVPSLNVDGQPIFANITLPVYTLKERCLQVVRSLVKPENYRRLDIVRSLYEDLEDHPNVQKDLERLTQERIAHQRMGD
# Sequence of VCB E3 ligase complex and Bcl-xL (Q15370 whole entry partner): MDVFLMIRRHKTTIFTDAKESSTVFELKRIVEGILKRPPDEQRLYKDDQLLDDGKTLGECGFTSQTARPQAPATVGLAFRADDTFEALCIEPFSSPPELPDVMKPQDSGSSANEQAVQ
# Sequence of VCB E3 ligase complex and Bcl-xL (Q15369 whole entry partner): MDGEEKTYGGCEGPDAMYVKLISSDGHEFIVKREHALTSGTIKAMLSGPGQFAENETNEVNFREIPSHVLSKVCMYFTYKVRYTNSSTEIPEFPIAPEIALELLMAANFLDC
Compound,"pIC50 (MOLT-4; MOLT-4, Table 2, 48 hr, MTS, read-out: Anti-Cancer Activity IC50 (48 hr) MOLT-4)","pIC50 (RS4; 11; RS4-11, Table 2, 48 hr, MTS, read-out: Anti-Cancer Activity IC50 (48 hr) RS4, 11)",ternary complex formation with the VCB E3 ligase complex and Bcl-xL [1],degradation of Bcl-xL (immunoblot) (Bcl-xL [2]),duration of Bcl-xL degradation after wash-off (Bcl-xL [2]),degradation of Bcl-2 (immunoblot) (Bcl-2 [3]),duration of Bcl-2 degradation after wash-off (Bcl-2 [3]),Bcl-xL expression levels in human platelets (Bcl-xL [4]),Bcl-2 expression levels in human platelets (Bcl-2 [5]),"pIC50 (MOLT-4; MOLT-4, 48 h, read-out: Anti-Cancer Activity IC50 (48 hr) MOLT-4)","pIC50 (MOLT-4; MOLT-4, 48 h, read-out: MOLT-4 48 h IC50)","pIC50 (RS4; 11; RS4-11, 48 h, read-out: Anti-Cancer Activity IC50 (48 hr) RS4, 11)","pIC50 (RS4; 11; RS4-11, 48 h, read-out: RS4 48 h IC50)","pIC50 (human platelets; Table 3, mean of two independent experiments in triplicates, read-out: Platelets 48 h IC50)","pIC50 (human platelets; Table 6, 4 th time, read-out: Platelets 4 th time 48 h IC50)",Platelets/MOLT-4 IC50 Fold change (human platelets; Table 3),Platelets/MOLT-4 IC50 Fold change (human platelets; Table 6),"degradation of BCL-XL by Western blotting analysis (Bcl-xL [2]; FIG. 1, 16 hours)","degradation of BCL-2 by Western blotting analysis (Bcl-2 [3]; FIG. 1, 16 hours)"
Cc1ncsc1-c1ccc([C@H](C)NC(=O)[C@@H]2C[C@@H](O)CN2C(=O)[C@@H](NC(=O)CN2CCN(CC(=O)N3CCN(C[C@]4(C)CCC(c5ccc(Cl)cc5)=C(CN5CCN(c6ccc(C(=O)NS(=O)(=O)c7ccc(N[C@H](CCN8CCCOCC8)CSc8ccccc8)c(S(=O)(=O)C(F)(F)F)c7)cc6)CC5)C4)CC3)CC2)C(C)(C)C)cc1 [Compound 77],> 7.70,> 7.70,formed ternary complexes,dose- and time-dependently degraded,long-lasting,dose- and time-dependently degraded,long-lasting,do not affect,do not affect,–,–,–,–,–,–,–,–,–,–
Cc1ncsc1-c1ccc([C@H](C)NC(=O)[C@@H]2C[C@@H](O)CN2C(=O)[C@@H](NC(=O)CN2CCN(CC(=O)N3CCN(CC4(C)CCC(c5ccc(Cl)cc5)=C(CN5CCN(c6ccc(C(=O)NS(=O)(=O)c7ccc(N[C@H](CCN8C[C@H]9C[C@@H]8CO9)CSc8ccccc8)c(S(=O)(=O)C(F)(F)F)c7)cc6)CC5)C4)CC3)CC2)C(C)(C)C)cc1 (stereo partly shown) [Compound 68],–,–,–,dose- and time-dependently degraded,long-lasting,dose- and time-dependently degraded,long-lasting,do not affect,do not affect,> 7.70,8.49,> 7.70,8.30,6.11,6.11,240,240,exemplary degradation,exemplary degradation
